Like-named read-outs stand apart in the source and are kept apart here.
Experiments:
MDR1 (MDR1-MDCKII cells) = molecular target: T1, MDR1 (MDR1-MDCKII cells) (Homo sapiens, UniProt P08183); assay: Permeability in MDR1-MDCKII cells; format: in vitro ADME; conditions: for MDCKII-MDR1: Papp A-B: MDCKII-MDR1, apical to basolateral
T1 construct: host or cells: MDCKII (canine kidney) cells
Protocol: Exemplary compounds were tested for cell permeability in Caco-2, MDCKII-MDR1 and MDCKII-BCRP cell lines with efflux transporter engagement inferred from the efflux ratios determined. Procedures and results are described below. […] This feature of certain compounds is in part due to efflux transporter engagement. See, for instance, exemplary such compounds included in data tables below.
MDR1-MDCKII cells (obtained from Piet Borst at the Netherlands Cancer Institute) were seeded onto […] membranes (PET) in 96-well insert systems at 2.5×10^5 cells/mL until to 4-7 days for confluent cell monolayer formation.
Test compounds were diluted with the transport buffer (HBSS with 10 mM Hepes, pH7.4) from DMSO stock solution to a concentration of 2.00 μM (DMSO<1%) and applied to the apical or basolateral side of the cell monolayer. Permeation of the test compounds from A to B direction or B to A direction was determined in duplicate. Digoxin was tested at 10.0 μM from A to B direction or B to A direction as well, while nadolol and metoprolol were tested at […] in A to B direction in duplicate. The plate was incubated for 2.5 hours in CO2 incubator at 37±1° C., with 5% CO2 at saturated humidity without shaking. In addition, the efflux ratio of each compound was also determined. Test and reference compounds were quantified by LC-MS/MS analysis based on the peak area ratio of analyte/IS.
After transport assay, Lucifer yellow rejection assay are applied to determine the cell monolayer integrity. Buffers are removed from both apical and basolateral chambers, followed by the addition of 75 μL of 100 μM lucifer yellow in transport buffer and 250 μL transport buffer in apical and basolateral chambers, respectively. The plate is incubated for 30 minutes at 37° C. with 5% CO2 and saturated humidity without shaking. After 30 minutes incubation, 20 μL of lucifer yellow samples are taken from the apical sides, followed by the addition of 60 μL of Transport Buffer. And then 80 μL of lucifer yellow samples are taken from the basolateral sides. The relative fluorescence unit (RFU) of lucifer yellow is measured at 425/528 nm (excitation/emission) with an Envision plate reader.
The apparent permeability coefficient Papp (cm/s) was calculated using the equation: […]
Where dCr/dt is the cumulative concentration of compound in the receiver chamber as a function of time (μM/s); Vr is the solution volume in the receiver chamber (0.075 mL on the apical side, 0.25 mL on the basolateral side); A is the surface area for the transport, i.e. 0.0804 cm^2 for the area of the monolayer; C0 is the initial concentration in the donor chamber (μM). The efflux ratio was calculated using the equation: […]
Where Vd is the volume in the donor chambers (0.075 mL on the apical side, 0.25 mL on the basolateral side); Cd and Cr are the final concentrations of transport compound in donor and receiver chambers, respectively.

[1] = Three time point assay for plasma, brain and testes distribution after oral dosing; format: in vivo, rat; conditions: for Brain concentration / Kp testes/plasma / Plasma concentration / Testes concentration / Kp brain/plasma / concentration at 0.5 h / Kp at 0.5 h / concentration at 2 h / Kp at 2 h / concentration at 7 h / Kp at 7 h: rat, oral dosing; for concentration at 0.5 h / Kp at 0.5 h / concentration at 2 h / Kp at 2 h / concentration at 7 h / Kp at 7 h: male, SD, 10 mg/kg; for concentration at 0.5 h / Kp at 0.5 h: time point 0.5 h; for concentration at 7 h / Kp at 7 h: time point 7 h
Protocol: Exemplary compounds were tested for distribution in plasma, brain and testes tissue following oral dosing of the compounds in rats. Procedures and results are described below.
Male SD Rats were group-housed (up to four animals/sex/cage) in polysulfone cages with certified aspen wood bedding during acclimation and study period.
Certified rodent diet and water was provided to all animals ad libitum, unless fasting for study procedures.
Appropriate amount of test article was accurately weighed and mixed with an appropriate volume of vehicle to get a clear solution or a uniform suspension; vortexing or sonication in water bath may also be need. Animals were dosed within four hours after the formulation is prepared.
For PO dosing, the dose formulation was administered via oral gavage following facility SOPs. The dose volume was determined by the animals' body weight collected on the morning of dosing day. The dose was 10 mg/kg.
Each blood collection (about 1 mL per time point at one or more of 0.5 h, 2 h, 3 h, 5.3 h, and 7 h) was performed from jugular vein or other suitable site of each animal into pre-chilled commercial EDTA-K2 tubes and placed on wet ice until centrifugation.
Blood samples were processed for plasma by centrifugation at approximately 4° C., 3,200 g for 10 min. Plasma was collected respectively and transferred into pre-labeled 96 well plate or polypropylene tubes, quick frozen over dry ice and kept at −60° C. or lower until LC-MS/MS analysis.
Rat brain was perfused with PBS to remove blood before harvest.
After perfusion, brain and testis were homogenized using homogenizing buffer (15 mM PBS (pH7.4):MeOH=2:1) at the ratio of 1:9 (1 g tissue with 9 mL buffer, the dilution ratio is 10). The brain homogenate was kept at −60° C. or lower until LC-MS/MS analysis. General sample processing procedure (brain homogenate & testis homogenate) using 96-well plate: • 1). An aliquot of 40 μL unknown sample, calibration standard, quality control and dilution quality control (if have), single blank, and double blank sample was added to the 96-well plate respectively; • 2). Each sample (except the double blank) was quenched with 400 μL of IS1 respectively (double blank sample was quenched with 400 μL of I), and then the mixture was vortex-mixed for 10 min at 800 rpm and centrifuged for 15 min at 3220×g, 4° C.; • 3). An aliquot of 50 μL supernatant was transferred to another clean 96-well plate and centrifuged for 5 min at 3220×g, 4° C., then the supernatant was directly injected for LC-MS/MS analysis.
• 1. A LC-MS/MS method for the quantitative determination of test compound in biological matrix was developed under Non-GLP compliance. • 2. A calibration curve with at least 6 non-zero calibration standards was applied for the method including LLOQ. • 3. A set of QCs consisting of low, middle, and high concentrations were applied for the method. • 4. N in 1 cassette LC-MS/MS method was developed for samples coming from different studies and the interference among all cassette analytes was evaluated during the method development. • 5. Cassette administration assay was performed if the mass difference (Δmass) among different analytes was more than 4 Da. In this case, interference evaluation was not necessary.
• 1. If sample number within a batch was ≤12, at least one set of standard curve separated with two parts through begin and end of the sequence, was included in the run, and QCs were not required. The recommended injection order was C8, C6, C4, C2, study samples, C7, C5, C3, C1. • 2. If sample number within a batch was >12, one standard curve and two sets of QCs with low, middle and high concentrations were applied for bioanalysis. Meanwhile, QCs number should be more than 5% of study sample number. • 3. Samples with the same types of matrix in different studies were quantified in one analysis run by using the developed N in 1 cassette LC-MS/MS method. • 4. […]

[2] = brain, read-out: Brain concentration
[3] = brain, read-out: Kp brain/plasma
[4] = plasma, read-out: Plasma concentration
[5] = testes, read-out: Kp testes/plasma
[6] = testes, read-out: Testes concentration

T1 sequence (P08183 whole entry): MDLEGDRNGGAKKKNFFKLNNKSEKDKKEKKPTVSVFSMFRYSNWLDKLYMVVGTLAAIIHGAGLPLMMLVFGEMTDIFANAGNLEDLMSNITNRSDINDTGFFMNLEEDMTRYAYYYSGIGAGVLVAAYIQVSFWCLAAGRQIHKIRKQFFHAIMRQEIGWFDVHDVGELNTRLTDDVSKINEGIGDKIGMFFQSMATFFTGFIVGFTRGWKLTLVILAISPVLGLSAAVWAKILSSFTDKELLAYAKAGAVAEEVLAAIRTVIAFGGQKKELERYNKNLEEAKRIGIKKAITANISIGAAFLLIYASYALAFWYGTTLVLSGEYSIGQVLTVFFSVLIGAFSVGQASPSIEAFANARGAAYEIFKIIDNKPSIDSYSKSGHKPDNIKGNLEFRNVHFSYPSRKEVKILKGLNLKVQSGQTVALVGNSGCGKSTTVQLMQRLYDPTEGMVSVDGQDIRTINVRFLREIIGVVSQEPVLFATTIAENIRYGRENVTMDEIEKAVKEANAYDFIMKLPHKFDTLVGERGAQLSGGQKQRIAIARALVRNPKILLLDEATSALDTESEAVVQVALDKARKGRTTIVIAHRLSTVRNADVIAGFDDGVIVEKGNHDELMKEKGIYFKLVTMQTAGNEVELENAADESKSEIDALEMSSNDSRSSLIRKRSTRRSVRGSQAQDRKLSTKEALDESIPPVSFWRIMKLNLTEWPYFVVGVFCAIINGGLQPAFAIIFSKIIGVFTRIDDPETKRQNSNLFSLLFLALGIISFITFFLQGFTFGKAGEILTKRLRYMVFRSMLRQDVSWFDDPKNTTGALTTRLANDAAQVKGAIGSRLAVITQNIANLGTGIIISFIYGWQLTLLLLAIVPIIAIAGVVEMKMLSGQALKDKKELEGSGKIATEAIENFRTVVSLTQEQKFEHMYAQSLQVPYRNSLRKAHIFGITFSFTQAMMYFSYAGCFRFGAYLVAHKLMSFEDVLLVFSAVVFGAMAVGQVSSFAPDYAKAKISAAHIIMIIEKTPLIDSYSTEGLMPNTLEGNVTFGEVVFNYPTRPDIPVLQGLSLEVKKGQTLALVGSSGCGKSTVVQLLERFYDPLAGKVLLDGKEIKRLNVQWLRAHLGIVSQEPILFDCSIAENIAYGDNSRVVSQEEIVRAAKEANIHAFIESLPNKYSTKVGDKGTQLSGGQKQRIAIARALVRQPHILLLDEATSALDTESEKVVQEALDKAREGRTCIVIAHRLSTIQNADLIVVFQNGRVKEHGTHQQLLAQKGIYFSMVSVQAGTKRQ

SMILES: Cc1ccc(-c2noc(C3CCC(F)C3)n2)cc1NC(=O)c1cnc2ccccn12 (racemic) [Compound I-319]
- MDCKII-MDR1: Efflux Ratio (MDR1 (MDR1-MDCKII cells)): 0.76
- MDCKII-MDR1: Papp A-B (MDR1 (MDR1-MDCKII cells)): 10 10^−6 cm/s

SMILES: Cc1ccc(-c2noc([C@H]3CCC(=O)N3)n2)cc1NC(=O)c1cnc2ccccn12 (racemic) [Compound I-327]
- MDCKII-MDR1: Efflux Ratio (MDR1 (MDR1-MDCKII cells)): 38.7
- MDCKII-MDR1: Papp A-B (MDR1 (MDR1-MDCKII cells)): 0.78 10^−6 cm/s

SMILES: Cc1ccc(-c2noc(C3CCS(=O)(=O)N3)n2)cc1NC(=O)c1cnc2ccccn12 (racemic) [Compound I-330]
- Brain concentration ([1]; time point 2 h): 0 ng/g
- Kp testes/plasma ([1]; time point 2 h): 0.86
- Plasma concentration ([1]; time point 2 h): 117 ng/mL
- Testes concentration ([1]; time point 2 h): 100 ng/g

SMILES: Cc1ccc(-c2noc(C(C)O)n2)cc1NC(=O)c1cnc2ccccn12 (racemic) [Compound I-364]
- MDCKII-MDR1: Efflux Ratio (MDR1 (MDR1-MDCKII cells)): 2.02
- MDCKII-MDR1: Papp A-B (MDR1 (MDR1-MDCKII cells)): 16 10^−6 cm/s

SMILES: Cc1ccc(-c2noc(C3CCC3F)n2)cc1NC(=O)c1cnc2ccccn12 (racemic) [Compound I-376]
- MDCKII-MDR1: Efflux Ratio (MDR1 (MDR1-MDCKII cells)): 0.54
- MDCKII-MDR1: Papp A-B (MDR1 (MDR1-MDCKII cells)): 8.41 10^−6 cm/s

SMILES: Cc1ccc(-c2noc(C3CCN3)n2)cc1NC(=O)c1cnc2ccccn12 (racemic) [Compound I-394]
- MDCKII-MDR1: Efflux Ratio (MDR1 (MDR1-MDCKII cells)): 3.08
- MDCKII-MDR1: Papp A-B (MDR1 (MDR1-MDCKII cells)): 6.21 10^−6 cm/s

SMILES: COc1ccn2c(C(=O)Nc3cc(-c4noc(CC(O)C(F)F)n4)ccc3C)cnc2c1 (single isomer, unassigned) [Compound I-76]
- Brain concentration ([1]; time point 3 h): 55.9 ng/g
- Kp brain/plasma ([1]; time point 3 h): 0.09
- Kp testes/plasma ([1]; time point 3 h): 0.41
- Plasma concentration ([1]; time point 3 h): 598 ng/mL
- Testes concentration ([1]; time point 3 h): 246 ng/g

SMILES: Cc1ccc(-c2noc(C(C)NS(C)(=O)=O)n2)cc1NC(=O)c1cnc2ccccn12 (single isomer, unassigned) [Compound I-238]
- Brain concentration ([1]; time point 2 h): 0 ng/g
- Kp testes/plasma ([1]; time point 2 h): 0.17
- Plasma concentration ([1]; time point 2 h): 791 ng/mL
- Testes concentration ([1]; time point 2 h): 131 ng/g

SMILES: Cc1ccc(-c2noc([C@H]3C[C@@H]3F)n2)cc1NC(=O)c1cnc2cc(COCC(C)(C)O)ccn12 [Compound I-71, N-[5-[5-[(1R,2S)-2-fluorocyclopropyl]-1,2,4-oxadiazol-3-yl]-2-methyl-phenyl]-7-[(2-hydroxy-2-methyl-propoxy)methyl]imidazo[1,2-a]pyridine-3-carboxamide]
- concentration at 0.5 h [1, 2]: 91.8 ng/g
- Kp at 0.5 h [1, 3]: 0.05
- concentration at 2 h ([1]; brain, time point 2 h, read-out: Brain concentration): 169 ng/g
- Kp at 2 h ([1]; brain, time point 2 h, read-out: Kp brain/plasma): 0.05
- concentration at 7 h [1, 2]: 126 ng/g
- Kp at 7 h [1, 3]: 0.03
- concentration at 0.5 h [1, 4]: 1810 ng/mL
- concentration at 2 h ([1]; plasma, time point 2 h, read-out: Plasma concentration): 3420 ng/mL
- concentration at 7 h [1, 4]: 4110 ng/mL
- Kp at 0.5 h [1, 5]: 0.09
- concentration at 0.5 h [1, 6]: 166 ng/g
- Kp at 2 h ([1]; testes, time point 2 h, read-out: Kp testes/plasma): 0.19
- concentration at 2 h ([1]; testes, time point 2 h, read-out: Testes concentration): 653 ng/g
- Kp at 7 h [1, 5]: 0.18
- concentration at 7 h [1, 6]: 739 ng/g
- brain penetration as indicated by Kp (Cbrain/Cplasma) ([1]; result in words): do not significantly penetrate the brain or minimally penetrate the brain

SMILES: Cc1ccc(-c2noc(C3COC3)n2)cc1NC(=O)c1cnc2ccccn12 [Compound I-138]
- MDCKII-MDR1: Efflux Ratio (MDR1 (MDR1-MDCKII cells)): 1.01
- MDCKII-MDR1: Papp A-B (MDR1 (MDR1-MDCKII cells)): 22 10^−6 cm/s

SMILES: Cc1nc(-c2ccc(Cl)c(NC(=O)c3cnc4ccccn34)c2)no1 [Compound I-172]
- MDCKII-MDR1: Efflux Ratio (MDR1 (MDR1-MDCKII cells)): 0.46
- MDCKII-MDR1: Papp A-B (MDR1 (MDR1-MDCKII cells)): 22.7 10^−6 cm/s

SMILES: CCCS(=O)(=O)N1CC(c2nc(-c3ccc(Cl)c(NC(=O)c4cnc5ccccn45)c3)no2)C1 [Compound I-220]
- MDCKII-MDR1: Efflux Ratio (MDR1 (MDR1-MDCKII cells)): 0.71
- MDCKII-MDR1: Papp A-B (MDR1 (MDR1-MDCKII cells)): 16.3 10^−6 cm/s

SMILES: Cc1ccc(-c2noc([C@H]3C[C@@H]3F)n2)cc1NC(=O)c1cnc2cc(N3CCC3)ccn12 [Compound I-295]
- Brain concentration ([1]; time point 2 h): 377 ng/g
- Kp brain/plasma ([1]; time point 2 h): 0.18
- Kp testes/plasma ([1]; time point 2 h): 0.49
- Plasma concentration ([1]; time point 2 h): 2080 ng/mL
- Testes concentration ([1]; time point 2 h): 1020 ng/g

SMILES: Cc1cc(C)cc(Nc2ccc3ncc(C(=O)Nc4cc(-c5noc([C@H]6C[C@@H]6F)n5)ccc4C)n3c2)c1 [Compound I-299]
- Brain concentration ([1]; time point 2 h): 101 ng/g
- Kp brain/plasma ([1]; time point 2 h): 0.47
- Kp testes/plasma ([1]; time point 2 h): 0.92
- Plasma concentration ([1]; time point 2 h): 216 ng/mL
- Testes concentration ([1]; time point 2 h): 198 ng/g

SMILES: Cc1ccc(-c2noc(CC(=O)O)n2)cc1NC(=O)c1cnc2ccccn12 [Compound I-335]
- Brain concentration ([1]; time point 2 h): 0 ng/g
- Plasma concentration ([1]; time point 2 h): 16.7 ng/mL
- Testes concentration ([1]; time point 2 h): 0 ng/g

SMILES: O=C(Nc1cc(-c2noc([C@H]3C[C@@H]3F)n2)ccc1Br)c1cnc2ccccn12 [Compound I-340]
- Brain concentration ([1]; time point 2 h): 3660 ng/g
- Kp brain/plasma ([1]; time point 2 h): 1.64
- Kp testes/plasma ([1]; time point 2 h): 1.35
- Plasma concentration ([1]; time point 2 h): 2230 ng/mL
- Testes concentration ([1]; time point 2 h): 3010 ng/g

SMILES: Cc1nc(-c2ccc(C)c(NC(=O)c3cnc4ccccn34)c2)no1 [Compound I-360]
- Brain concentration ([1]; time point 2 h): 3420 ng/g
- Kp brain/plasma ([1]; time point 2 h): 0.94
- Kp testes/plasma ([1]; time point 2 h): 0.81
- Plasma concentration ([1]; time point 2 h): 3650 ng/mL
- Testes concentration ([1]; time point 2 h): 2960 ng/g
